Measurements published in patent US20260085082A1, “KDM1A INHIBITORS FOR THE TREATMENT OF DISEASE” (Imago Biosciences, Inc., priority 2022, published 2026).
Read-outs that look alike come from different tables or passages of the source.

Legend:
[1] = biological target: LSD1 (Homo sapiens, UniProt O60341); assay: LSD1 10-dose IC50 fluorescence coupling enzyme assay (HRP/Amplex Red, resorufin); format: biochemical; conditions: 10 M histone H3(1-21)K4me2 peptide substrate; 3-fold serial dilution in duplicate starting at 100 μM
Procedure: Compounds were tested in a 10-dose IC50 mode fluorescence coupling enzyme assay with 3-fold serial dilution in duplicate starting at 100 μM. The production of FAD-dependent H2O2 as a result of demethylase activity of LSD1 on […] histone H3(1-21)K4me2 peptide substrate was measured by coupling with HRP and Amplex Red to yield resorufin (fluorescence measured at Ex/Em=535/590 nm on EnVision, Perkin Elmer).

[2] = test system: MV4;11 cells; assay: Cell Titer-Glo Luminescent Cell Viability Assay, cell growth inhibition against MV4;11 cells; format: cell-based
Procedure: Cell growth inhibition against MV4;11 cells was confirmed for the synthetic compounds. The Cell Titer-Glo Luminescent Cell Viability Assay (Promega, USA) was used to determine the number of viable cells in culture based on quantitation of the ATP present, which signals the presence of metabolically active cells. This assay was run in a 96-well plate format arrayed in a 10-point dose curve, ranging from 0 to 50 μM with 4-fold dilutions for each compound. Cells are seeded on Day 0 at 3750 cells per well. At Day 5, a portion of each well is assayed for viability according to the Cell Titer-Glo protocol. Briefly, cells/plates were centrifuged at 1100×g for 5 minutes. 100 μL of media was removed from each well and replaced with 100 μL of CellTiter-Glo. The plates were shaken at room temperature for 10 minutes and measured on a luminescence plate reader. Another portion of each well from the Day 5 plate is used to seed a new 96 plate containing fresh compound and media set up in the equivalent 10-point dose curve array in order to continue the cell growth inhibition assay for another 5 days. A final timepoint is collected at Day 10 using the Cell Titer-Glo protocol. Luminescence was detected on an EnVision® Multilabel Plate Reader (Perkin Elmer, Waltham, Mass.) and IC50 determination was made using Graph Pad Prism software.

[3] = Homo sapiens, MV4-11, 120 h, MV4;11 cells, Day 5, 10-point dose curve 0 to 50 μM, read-out: Cell Titer Glo IC50 (5 d)
[4] = Homo sapiens, MV4-11, MV4;11 cells, Day 10 (re-seeded at Day 5 with fresh compound), 10-point dose curve 0 to 50 μM, read-out: Cell Titer Glo IC50 (10 d)

| Structure (SMILES) | IC50 [1] [nM] | IC50 ([2]; MV4;11 cells, Day 5, 10-point dose curve 0 to 50 μM, 2,2,2-trifluoroacetate, read-out: Cell Titer Glo IC50 (5 d)) [nM] | IC50 [2, 3] [nM] | IC50 ([2]; MV4;11 cells, Day 10 (re-seeded at Day 5 with fresh compound), 10-point dose curve 0 to 50 μM, read-out: Cell Titer Glo IC50 (10 d)) [nM] | IC50 [2, 4] [nM] |
| --- | --- | --- | --- | --- | --- |
| COc1ccc(-n2nc(C(=O)NC3CCCNC3)cc2-c2ccc(C#N)cc2)cc1 (stereo not drawn) [Example 3, 5-(4-Cyanophenyl)-1-(4-methoxyphenyl)-N-(piperidin-3-yl)-1H-pyrazole-3-carboxamide 2,2,2-trifluoroacetate] | 1000 to 10000 |  | 1000 to 10000 |  |  |
| COc1ccc(-n2nc(-c3ccc(C#N)cc3)cc2C(=O)NC2CCCNC2)cc1 (stereo not drawn) [Example 5, 3-(4-Cyanophenyl)-1-(4-methoxyphenyl)-N-(piperidin-3-yl)-1H-pyrazole-5-carboxamide 2,2,2-trifluoroacetate] | 1000 to 10000 |  | > 10000 |  |  |
| Cc1ccc(-n2nc(C(=O)NC3CCNC3)cc2-c2ccc(C#N)c(F)c2)cc1 (stereo not drawn) [Example 10, 5-(4-Cyano-3-fluorophenyl)-N-(pyrrolidin-3-yl)-1-(p-tolyl)-1H-pyrazole-3-carboxamide] | 500 to 1000 |  | 1000 to 10000 |  |  |
| Cc1ccc(-n2nc(-c3ccc(C#N)c(F)c3)cc2C(=O)N2CCC(N)CC2)cc1 [Example 13, 4-(5-(4-Aminopiperidine-1-carbonyl)-1-(p-tolyl)-1H-pyrazol-3-yl)-2-fluorobenzonitrile] | 1000 to 10000 |  | 1000 to 10000 |  |  |
| Cc1ccc(-n2nc(-c3ccc(C#N)c(F)c3)cc2C(=O)NC2CCNC2)cc1 (stereo not drawn) [Example 15, 3-(4-Cyano-3-fluorophenyl)-N-(pyrrolidin-3-yl)-1-(p-tolyl)-1H-pyrazole-5-carboxamide] | 500 to 1000 |  | 1000 to 10000 |  |  |
| COc1ccc(-n2nc(-c3ccc(C#N)c(F)c3)cc2C(=O)N2CCCC(N)C2)cc1 (stereo not drawn) [Example 17, 4-(5-(3-Aminopiperidine-1-carbonyl)-1-(4-methoxyphenyl)-1H-pyrazol-3-yl)-2-fluorobenzonitrile] | < 500 |  | 1000 to 10000 |  |  |
| COc1ccc(-n2nc(C(=O)N3CCC[C@@H](N)C3)cc2-c2ccc(C#N)c(F)c2)cc1 [Example 18, (R)-4-(3-(3-Aminopiperidine-1-carbonyl)-1-(4-methoxyphenyl)-1H-pyrazol-5-yl)-2-fluorobenzonitrile] | < 500 |  | < 500 |  | < 500 |
| COc1ccc(-n2nc(C(=O)N3CCC[C@H](N)C3)cc2-c2ccc(C#N)c(F)c2)cc1 [Example 19, (S)-4-(3-(3-Aminopiperidine-1-carbonyl)-1-(4-methoxyphenyl)-1H-pyrazol-5-yl)-2-fluorobenzonitrile] | < 500 |  | < 500 |  | < 500 |
| COc1ccc(-n2nc(C(=O)NC3CCCC(N)C3)cc2-c2ccc(C#N)c(F)c2)cc1 (stereo not drawn) [Example 20, N-(3-aminocyclohexyl)-5-(4-cyano-3-fluorophenyl)-1-(4-methoxyphenyl)-1H-pyrazole-3-carboxamide 2,2,2-trifluoroacetate] | 1000 to 10000 |  | 1000 to 10000 |  |  |
| COc1ccc(-n2nc(C(=O)NC3CCNC3)cc2-c2ccc(C#N)c(F)c2)cc1 (stereo not drawn) [Example 21, 5-(4-Cyano-3-fluorophenyl)-1-(4-methoxyphenyl)-N-(pyrrolidin-3-yl)-1H-pyrazole-3-carboxamide] | 500 to 1000 |  | 1000 to 10000 |  |  |
| COc1ccc(-n2nc(C(=O)N[C@H]3CCC[C@@H](N)C3)cc2-c2ccc(C#N)c(F)c2)cc1 [Example 22, N-((1S,3R)-3-aminocyclohexyl)-5-(4-cyano-3-fluorophenyl)-1-(4-methoxyphenyl)-1H-pyrazole-3-carboxamide] | 500 to 1000 |  | 1000 to 10000 |  |  |
| COc1ccc(-n2nc(C(=O)N3CCC(NC(=N)N)CC3)cc2-c2ccc(C#N)c(F)c2)cc1 [Example 30, 1-(1-(5-(4-Cyano-3-fluorophenyl)-1-(4-methoxyphenyl)-1H-pyrazole-3-carbonyl)piperidin-4-yl)guanidine 2,2,2-trifluoroacetate] | 1000 to 10000 |  |  |  |  |
| N#Cc1ccc(-c2cc(C(=O)N3CCC[C@@H](N)C3)nn2-c2ccc(N3CCNC(=O)C3)cc2)cc1F [Example 49, (R)-4-(3-(3-aminopiperidine-1-carbonyl)-1-(4-(3-oxopiperazin-1-yl)phenyl)-1H-pyrazol-5-yl)-2-fluorobenzonitrile] | < 500 |  |  |  |  |
| COc1cc(N2CCNC(=O)C2)ccc1-n1nc(C(=O)N2CCC[C@@H](N)C2)cc1-c1ccc(C#N)c(F)c1 [Example 51, (R)-4-(3-(3-aminopiperidine-1-carbonyl)-1-(2-methoxy-4-(3-oxopiperazin-1-yl)phenyl)-1H-pyrazol-5-yl)-2-fluorobenzonitrile] | < 500 |  |  |  |  |
| CN1CCN(c2ccc(-n3nc(C(=O)N4CCC[C@@H](N)C4)cc3-c3ccc(C#N)c(F)c3)c(F)c2)CC1 [Example 67, (R)-4-(3-(3-aminopiperidine-1-carbonyl)-1-(2-fluoro-4-(4-methylpiperazin-1-yl)phenyl)-1H-pyrazol-5-yl)-2-fluorobenzonitrile] | < 500 |  |  |  |  |
| CN1CCN(c2ccc(-n3nc(-c4ccc(C#N)c(F)c4)cc3C(=O)N3CCC[C@@H](N)C3)cc2F)CC1 [Example 80, (R)-4-(5-(3-aminopiperidine-1-carbonyl)-1-(3-fluoro-4-(4-methylpiperazin-1-yl)phenyl)-1H-pyrazol-3-yl)-2-fluorobenzonitrile 2,2,2-trifluoroacetate] | < 500 |  |  |  |  |

Second part, led by results:

| IC50 [1] [nM] | IC50 ([2]; MV4;11 cells, Day 5, 10-point dose curve 0 to 50 μM, 2,2,2-trifluoroacetate, read-out: Cell Titer Glo IC50 (5 d)) [nM] | IC50 [2, 3] [nM] | Structure (SMILES) | IC50 ([2]; MV4;11 cells, Day 10 (re-seeded at Day 5 with fresh compound), 10-point dose curve 0 to 50 μM, read-out: Cell Titer Glo IC50 (10 d)) [nM] | IC50 [2, 4] [nM] |
| --- | --- | --- | --- | --- | --- |
| < 500 | < 500 |  | COC1CCN(c2ccc(-n3nc(C(=O)N4CCCC(N)C4)cc3-c3ccc(C#N)c(F)c3)cc2)CC1 (stereo in doubt) [Example 64, (R)-4-(3-(3-aminopiperidine-1-carbonyl)-1-(4-(4-methoxypiperidin-1-yl)phenyl)-1H-pyrazol-5-yl)-2-fluorobenzonitrile 2,2,2-trifluoroacetate] | < 500 |  |
| < 500 |  | 500 to 1000 | COc1ccc(-n2nc(C(=O)N3CCCC(N)C3)cc2-c2ccc(C#N)cc2)cc1 (stereo not drawn) [Example 2, 4-(3-(3-Aminopiperidine-1-carbonyl)-1-(4-methoxyphenyl)-1H-pyrazol-5-yl)benzonitrile] |  |  |
| < 500 |  | 1000 to 10000 | COc1ccc(-n2nc(-c3ccc(C#N)cc3)cc2C(=O)N2CCCC(N)C2)cc1 (stereo not drawn) [Example 4, 4-(5-(3-Aminopiperidine-1-carbonyl)-1-(4-methoxyphenyl)-1H-pyrazol-3-yl)benzonitrile] |  |  |
| < 500 |  | < 500 | Cc1ccc(-n2nc(C(=O)N3CCCC(N)C3)cc2-c2ccc(C#N)c(F)c2)cc1 (stereo not drawn) [Example 6, 4-(3-(3-Aminopiperidine-1-carbonyl)-1-(p-tolyl)-1H-pyrazol-5-yl)-2-fluorobenzonitrile] |  |  |
| < 500 |  | 1000 to 10000 | Cc1ccc(-n2nc(C(=O)N3CCCC(CN)C3)cc2-c2ccc(C#N)c(F)c2)cc1 (stereo not drawn) [Example 7, 4-(3-(3-(Aminomethyl)piperidine-1-carbonyl)-1-(p-tolyl)-1H-pyrazol-5-yl)-2-fluorobenzonitrile] |  |  |
| < 500 |  | > 10000 | Cc1ccc(-n2nc(C(=O)N3CCC(CN)CC3)cc2-c2ccc(C#N)c(F)c2)cc1 [Example 8, 4-(3-(4-(Aminomethyl)piperidine-1-carbonyl)-1-(p-tolyl)-1H-pyrazol-5-yl)-2-fluorobenzonitrile] |  |  |
| < 500 |  | 1000 to 10000 | Cc1ccc(-n2nc(C(=O)N3CCC(N)CC3)cc2-c2ccc(C#N)c(F)c2)cc1 [Example 9, 4-(3-(4-Aminopiperidine-1-carbonyl)-1-(p-tolyl)-1H-pyrazol-5-yl)-2-fluorobenzonitrile] |  |  |
| < 500 |  | < 500 | Cc1ccc(-n2nc(C(=O)N3CCC[C@@H](N)C3)cc2-c2ccc(C#N)c(F)c2)cc1 [Example 11, (R)-4-(3-(3-Aminopiperidine-1-carbonyl)-1-(p-tolyl)-1H-pyrazol-5-yl)-2-fluorobenzonitrile] |  | < 500 |
| < 500 |  | < 500 | Cc1ccc(-n2nc(C(=O)N3CCC[C@H](N)C3)cc2-c2ccc(C#N)c(F)c2)cc1 [Example 12, (S)-4-(3-(3-Aminopiperidine-1-carbonyl)-1-(p-tolyl)-1H-pyrazol-5-yl)-2-fluorobenzonitrile] |  | < 500 |
| < 500 |  | 1000 to 10000 | Cc1ccc(-n2nc(-c3ccc(C#N)c(F)c3)cc2C(=O)N2CCCC(N)C2)cc1 (stereo not drawn) [Example 14, 4-(5-(3-Aminopiperidine-1-carbonyl)-1-(p-tolyl)-1H-pyrazol-3-yl)-2-fluorobenzonitrile] |  |  |
| < 500 |  | < 500 | COc1ccc(-n2nc(C(=O)N3CCCC(N)C3)cc2-c2ccc(C#N)c(F)c2)cc1 (stereo not drawn) [Example 16, 4-(3-(3-Aminopiperidine-1-carbonyl)-1-(4-methoxyphenyl)-1H-pyrazol-5-yl)-2-fluorobenzonitrile] |  |  |
